The target of one test is HDAC1 R36A (Homo sapiens, UniProt Q13547, R36A). As to the kind of experiment: Acetate inhibition assay. Type of test: biochemical.
The target in a further test is wild-type HDAC1 (Homo sapiens, UniProt Q13547). As to the kind of experiment: Acetate inhibition assay. It counts as biochemical. As to conditions: at least three independent trials, standard error.
In the next test the target is HDAC1 R34A (Homo sapiens, UniProt Q13547, R34A). As to the kind of experiment: Acetate inhibition assay. Type of test: biochemical.
HDAC1 R34A, sequence (Q13547 whole entry R34A): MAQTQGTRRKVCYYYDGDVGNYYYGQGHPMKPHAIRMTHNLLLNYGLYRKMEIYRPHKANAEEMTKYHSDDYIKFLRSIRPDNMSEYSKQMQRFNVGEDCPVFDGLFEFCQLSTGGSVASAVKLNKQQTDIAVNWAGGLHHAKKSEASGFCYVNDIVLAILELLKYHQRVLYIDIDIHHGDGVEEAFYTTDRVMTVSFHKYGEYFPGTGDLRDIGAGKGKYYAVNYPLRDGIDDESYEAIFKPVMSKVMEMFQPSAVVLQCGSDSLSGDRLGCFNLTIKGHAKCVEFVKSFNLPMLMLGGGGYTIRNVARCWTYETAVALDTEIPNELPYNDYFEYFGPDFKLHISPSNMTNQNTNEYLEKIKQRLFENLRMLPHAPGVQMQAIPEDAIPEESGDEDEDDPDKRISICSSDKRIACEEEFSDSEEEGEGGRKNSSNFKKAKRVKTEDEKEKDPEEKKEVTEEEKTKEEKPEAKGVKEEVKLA
The next test deals with HDAC1 F205Y (Homo sapiens, UniProt Q13547, F205Y). As to the kind of experiment: Acetate inhibition assay. It counts as biochemical.
HDAC1 F205Y, sequence (Q13547 whole entry F205Y): as the sequence (Q13547 whole entry R34A) above, with A34R, F205Y counted along it
For a further test, the target named is HDAC1 Y23A (Homo sapiens, UniProt Q13547, Y23A). As to the kind of experiment: Acetate inhibition assay. Type of test: biochemical.
HDAC1 Y23A, sequence (Q13547 whole entry Y23A): as the sequence (Q13547 whole entry R34A) above, with Y23A, A34R counted along it
Test [1] concerns recombinant HDAC8 wild type. As to conditions: acetate inhibition; cited from earlier work.
For a further test, the target named is HDAC1 C151A (Homo sapiens, UniProt Q13547, C151A). As to the kind of experiment: Acetate inhibition assay. Type of test: biochemical.
HDAC1 C151A, sequence (Q13547 whole entry C151A): as the sequence (Q13547 whole entry R34A) above, with A34R, C151A counted along it
The next test addresses HDAC1 Y24A (Homo sapiens, UniProt Q13547, Y24A). As to the kind of experiment: Acetate inhibition assay. Type of test: biochemical.
The subject of another test is HDAC8 R37A. As to conditions: HDAC8 R37A vs HDAC8 wild type; cited from earlier work.

HDAC1 R36A, sequence (Q13547 whole entry R36A): as the sequence (Q13547 whole entry R34A) above, with A34R, R36A counted along it
HDAC1 Y24A, sequence (Q13547 whole entry Y24A): as the sequence (Q13547 whole entry R34A) above, with Y24A, A34R counted along it
wild-type HDAC1, sequence (Q13547 whole entry): as the sequence (Q13547 whole entry R34A) above, with A34R counted along it

As to `CC(=O)[O-].[Na+]` [acetate, sodium acetate], the “fold reduction in acetate inhibition compared to the wild type” value is reported as “roughly 2 fold” on HDAC1 R36A (HDAC1 R36A vs wild type); “roughly 3 fold” at HDAC1 R34A (HDAC1 R34A vs wild type); “roughly 3 fold” on HDAC1 Y23A (HDAC1 Y23A vs wild type); “roughly 2 fold” on HDAC1 C151A (HDAC1 C151A vs wild type); “roughly 3 fold” on HDAC1 Y24A (HDAC1 Y24A vs wild type). Also, the IC50 (usually the concentration that inhibits the measured activity by half) on HDAC1 R36A (acetate inhibition, HDAC1 R36A) was 16 ± 1.3 mM; against wild-type HDAC1, 7.2 ± 0.54 mM; against HDAC1 R34A (acetate inhibition, HDAC1 R34A), 21 ± 1.6 mM; against HDAC1 F205Y it was 8 ± 1.5 mM; on HDAC1 Y23A (acetate inhibition, HDAC1 Y23A), 21 ± 1.5 mM; in test [1], 2.5 mM. The IC50 at HDAC1 C151A (acetate inhibition, HDAC1 C151A) amounted to 13 ± 1.1 mM; on HDAC1 Y24A (acetate inhibition, HDAC1 Y24A), 19 ± 1.1 mM. For the same molecule, the “fold reduction of acetate inhibition compared to wild type” value in the test with HDAC8 R37A is reported as 160 fold.

(Values after paper PMC3983352 (Journal of Medicinal Chemistry, 2014).)
